In US9223210B2, “Photosensitive compound, photosensitive resin, and photosensitive composition” (TOYO GOSEI CO., LTD., priority 2012, dated 2015):

Key:
[1] = Solubility in aqueous phosphoric acid solution (Test Example 1); assay type: physicochemical; conditions: for Solubility in aq. phosphoric acid solution (104 g): liquid temperature 20° C., amount dissolved (complete dissolution where stated); for Solubility in aqueous phosphoric acid solution (in words): summary of Table 1
Procedure: (§1) Solubility of each of the photosensitive compounds produced in Comparative Synthesis Examples 1 to 2 and Examples 2 to 5 (comparative photosensitive materials H and I, and photosensitive materials C to F) in 100 g of neutral water (water temperature: 20° C.) was assessed. The solubility in an aqueous phosphoric acid solution (liquid temperature: 20° C.) obtained by mixing phosphoric acid (4 g) and water (100 g), was also determined.

[2] = Solubility in neutral water (Test Example 1); assay type: physicochemical; conditions: 100 g of neutral water, water temperature 20° C.
Procedure: as §1

[3] = phosphoric acid (4 g) and water (100 g)

COC(CCCNC(=O)C(=Cc1ccc(N=[N+]=[N-])cc1)NC(=O)c1ccc(CN2CCOCC2)cc1)OC [Photosensitive material C, 3-(4-azidophenyl)-N-(4,4′-dimethoxybutyl)-2-(4-morpholinomethylphenyl)carbonylamino-prop-2-enamide]
Solubility in aq. phosphoric acid solution (104 g) [1, 3]: 5 g (complete | Solubility in water (100 g) [2]: ≦0.1 g

[N-]=[N+]=Nc1ccc(C=C(NC(=O)c2ccc(CN3CCOCC3)cc2)C(=O)NCCCC=O)cc1 [Photosensitive material F, 3-(4-azidophenyl)-N-(3-formylpropyl)-2-(4-morpholinomethylphenyl)carbonylamino-prop-2-enamide]
Solubility in aq. phosphoric acid solution (104 g) [1, 3]: 5 g (complete | Solubility in water (100 g) [2]: ≦0.1 g

COC(CCCNC(=O)C(=Cc1cccnc1)NC(=O)C=Cc1ccc(N=[N+]=[N-])cc1)OC [Comp. Photosensitive material I, 2-(3-(4-azidophenyl)prop-2-enoylamino)-N-(4,4-dimethoxybutyl)-3-(3-pyridyl)prop-2-enamide]
Solubility in aq. phosphoric acid solution (104 g), partial dissolution ([1]; phosphoric acid (4 g) and water (100 g), 20° C., amount giving only partial dissolution): 0.4 g (partial | Solubility in aq. phosphoric acid solution (104 g) [1, 3]: 0.2 g (complete | Solubility in aqueous phosphoric acid solution (in words) [1]: lower than that of photosensitive materials C to F | Solubility in water (100 g) [2]: ≦0.1 g

C=CCN(CC=C)Cc1ccc(C(=O)NC(=Cc2ccc(N=[N+]=[N-])cc2)C(=O)NCCCC(OC)OC)cc1 [Photosensitive material E, 3-(4-azidophenyl)-N-(4,4′-dimethoxybutyl)-2-(4-diallylaminomethylphenyl)carbonylamino-prop-2-enamide]
Solubility in aq. phosphoric acid solution (104 g) [1, 3]: 5 g (complete | Solubility in water (100 g) [2]: ≦0.1 g

3-(4-azidophenyl)-N-(4,4′-dimethoxybutyl)-2-(4-imidazolylmethylphenyl)carbonylamino-prop-2-enamide [Photosensitive material D]
Solubility in aq. phosphoric acid solution (104 g) [1, 3]: 5 g (complete | Solubility in water (100 g) [2]: ≦0.1 g

COC(CCCNC(=O)C(=Cc1ccc(N=[N+]=[N-])cc1)NC(=O)c1ccccc1)OC [Comp. Photosensitive material H, 3-(4-azidophenyl)-N-(4,4′-dimethoxybutyl)-2-phenylcarbonylamino-prop-2-enamide]
Solubility in aq. phosphoric acid solution (104 g) [1, 3]: ≦0.1 g | Solubility in aqueous phosphoric acid solution (in words) [1]: very low solubility | Solubility in water (100 g) [2]: ≦0.1 g
